Experimental data reported in patent US20260226060A1, “SALTS AND CRYSTALLINE FORMS OF COMPOUND A, METHODS OF PREPARATION, AND USES THEREOF” (SHENZHEN NEWDEL BIOTECH CO., LTD., priority 2023, published 2026).
In brackets after ≈: the same amount, converted by molar mass.

Assays:
Assay type in all cases: physicochemical
[1] = Short-term physical stability of anhydrous crystal forms (40° C./75% RH, open, 1 day; XRPD)
From the text: In addition to the mesylate crystalline form I, the other anhydrous crystalline forms were stable under high humidity conditions.

[2] = Solubility analysis in biological solvents (SGF, FaSSIF, FeSSIF) and water, with pH and XRPD of residual solid
Method: (§1) HPLC analysis was performed by using an Agilent HPLC 1260 series instrument and the HPLC methods used for solubility and stability determinations were shown in Tables 33 and 34, respectively.

[3] = Rough solubility of free base starting material, visually evaluated by solvent addition
From the text: The rough solubility test of free base of compound A was visually evaluated by solvent addition, and the results were summarized in Table 1.

[4] = Dynamic vapor sorption (DVS) hygroscopicity
Method: The water vapor sorption/desorption data of the samples were collected on a dynamic vapor sorption instrument (proUmid GmbH & Co. KG, Germany). Approximately 50-70 mg of sample was placed in a sample pan previously tared and the weight of the sample was measured accurately.

[5] = Solid state stability at 60° C. (closed) and 40° C./75% RH (open), XRPD and HPLC purity
Method: (closed) and 40° C./75 RH (open) for 14 days, XRPD analysis and purity analysis were performed at various points of time, and solid-state stability was evaluated.
as §1

## Cc1c(C#Cc2cnc3ccc(N4CCC(O)CC4)nn23)cccc1C(=O)Nc1cc(Cl)cc(C(F)(F)F)c1 [Besylate crystalline form I]
[1]
  XPRD Results after short-term physical stability: unchanged

## Cc1c(C#Cc2cnc3ccc(N4CCC(O)CC4)nn23)cccc1C(=O)Nc1cc(Cl)cc(C(F)(F)F)c1 [Compound A, N-(3-chloro-5-(trifluoromethyl)phenyl)-3-((6-(4-hydroxypiperidin-1-yl)imidazo [1,2-b]pyridazin-3-yl)ethynyl)-2-methylbenzamide]
[2]; FeSSIF, 37 °C, pH 5, fessif, thermodynamic from solid, FeSSIF, read-out: solubility
  Solubility: 200 to 1900 µg/mL (≈ 0.361 to 3.43 mM)
[2]; SGF and water
  Solubility: < LOD

## Cc1c(C#Cc2cnc3ccc(N4CCC(O)CC4)nn23)cccc1C(=O)Nc1cc(Cl)cc(C(F)(F)F)c1 [Free base crystalline form I]
[3]; 2-methyltetrahydrofuran, organic solvent or mixture, thermodynamic from solid, 2-methyltetrahydrofuran, read-out: Solubility
  Solubility: > 50000 µg/mL
[3]; 2-methyltetrahydrofuran, listed as starting material
  Solubility: 50000 to 100000 µg/mL
[3]; acetone, organic solvent or mixture, thermodynamic from solid, acetone, read-out: Solubility
  Solubility: 20000 to 50000 µg/mL (≈ 36.1 to 90.3 mM)
[3]; acetonitrile, organic solvent or mixture, thermodynamic from solid, acetonitrile, read-out: Solubility
  Solubility: 1000 to 5000 µg/mL (≈ 1.81 to 9.03 mM)
[3]; acetonitrile/water, 19/1 (v/v), organic solvent or mixture, thermodynamic from solid, acetonitrile/water, 19/1 (v/v), read-out: Solubility
  Solubility: 3000 to 5000 µg/mL (≈ 5.42 to 9.03 mM)
[3]; butanone, organic solvent or mixture, thermodynamic from solid, butanone, read-out: Solubility
  Solubility: > 50000 µg/mL
[3]; butanone, listed as starting material
  Solubility: 50000 to 100000 µg/mL
[3]; dichloromethane, organic solvent or mixture, thermodynamic from solid, dichloromethane, read-out: Solubility
  Solubility: 3000 to 5000 µg/mL (≈ 5.42 to 9.03 mM)
[3]; ethanol, organic solvent or mixture, thermodynamic from solid, ethanol, read-out: Solubility
  Solubility: 5000 to 20000 µg/mL (≈ 9.03 to 36.1 mM)
[3]; ethyl acetate, organic solvent or mixture, thermodynamic from solid, ethyl acetate, read-out: Solubility
  Solubility: 5000 to 20000 µg/mL (≈ 9.03 to 36.1 mM)
[3]; isopropanol, organic solvent or mixture, thermodynamic from solid, isopropanol, read-out: Solubility
  Solubility: 20000 to 50000 µg/mL (≈ 36.1 to 90.3 mM)
[3]; isopropyl acetate, organic solvent or mixture, thermodynamic from solid, isopropyl acetate, read-out: Solubility
  Solubility: 5000 to 20000 µg/mL (≈ 9.03 to 36.1 mM)
[3]; methanol, organic solvent or mixture, thermodynamic from solid, methanol, read-out: Solubility
  Solubility: 3000 to 5000 µg/mL (≈ 5.42 to 9.03 mM)
[3]; methyl isobutyl ketone, organic solvent or mixture, thermodynamic from solid, methyl isobutyl ketone, read-out: Solubility
  Solubility: 5000 to 20000 µg/mL (≈ 9.03 to 36.1 mM)
[3]; methyl tert-butyl ether, organic solvent or mixture, thermodynamic from solid, methyl tert-butyl ether, read-out: Solubility
  Solubility: 2000 to 5000 µg/mL (≈ 3.61 to 9.03 mM)
[3]; n-heptane, organic solvent or mixture, thermodynamic from solid, n-heptane, read-out: Solubility
  Solubility: < 1000 µg/mL
[3]; n-heptane, listed as starting material
  Solubility: <1000 µg/mL
[3]; tetrahydrofuran, organic solvent or mixture, thermodynamic from solid, tetrahydrofuran, read-out: Solubility
  Solubility: > 50000 µg/mL
[3]; tetrahydrofuran, listed as starting material
  Solubility: >100000 µg/mL
[3]; toluene, organic solvent or mixture, thermodynamic from solid, toluene, read-out: Solubility
  Solubility: < 1000 µg/mL
[3]; toluene, listed as starting material
  Solubility: <1000 µg/mL
[3]; water, thermodynamic from solid, water, read-out: Solubility
  Solubility: < 1000 µg/mL
[3]; water, listed as starting material
  Solubility: <1000 µg/mL
[4]
  crystalline form after DVS analysis (XRPD): remained unchanged
  hygroscopicity (DVS): slightly hygroscopic
[4]; 80% RH
  DVS The weight gains by vapor sorption %: 0.8%
[4]; 90% RH
  DVS The weight gains by vapor sorption %: 0.9%
[4]; 90% RH, listed as free base crystalline form I
  DVS The weight gains by vapor sorption %: ~0.9%
[5]; 0 d
  Purity in stability evaluation: 98.63 Area %
[5]; 60° C./Closed and 40° C./75% RH (Open), 14 days
  Solid state stability-14 days: physically and chemically stable
[5]; 7 d-40° C./75% RH
  Purity in stability evaluation: 98.60 Area %
  XRPD in stability evaluation: unchanged
[5]; 7 d-60° C./capped
  Purity in stability evaluation: 98.61 Area %
  XRPD in stability evaluation: unchanged
[5]; 14 d-40° C./75% RH
  Purity in stability evaluation: 98.61 Area %
  XRPD in stability evaluation: unchanged
[5]; 14 d-60° C./capped
  Purity in stability evaluation: 98.70 Area %
  XRPD in stability evaluation: unchanged
[2]; FaSSIF (medium pH 6.5), 0.5 h
  pH in solubility analysis: 6.4
[2]; FaSSIF (medium pH 6.5), 2 h
  pH in solubility analysis: 6.3
[2]; FaSSIF (medium pH 6.5), 24 h
  pH in solubility analysis: 6.4
[2]; FaSSIF, 0.5 h
  XRPD of residual solid in solubility analysis: unchanged
[2]; FaSSIF, 0.5 h, 37° C., target 5 mg/mL
  Solubility: 14 µg/mL (≈ 0.0253 mM)
[2]; FaSSIF, 0.5 h, 37° C., target 5 mg/mL, listed as free base crystalline form I
  Solubility: 14 µg/mL (≈ 0.0253 mM)
[2]; FaSSIF, 2 h, 37° C., target 5 mg/mL
  Solubility: 13 µg/mL (≈ 0.0235 mM)
[2]; FaSSIF, 2 h, 37° C., target 5 mg/mL, listed as free base crystalline form I
  Solubility: 13 µg/mL (≈ 0.0235 mM)
[2]; FaSSIF, 24 h
  XRPD of residual solid in solubility analysis: unchanged
[2]; FaSSIF, 24 h, 37° C., target 5 mg/mL
  Solubility: 11 µg/mL (≈ 0.0199 mM)
[2]; FeSSIF (medium pH 5.0), 0.5 h
  pH in solubility analysis: 5.0
[2]; FeSSIF (medium pH 5.0), 2 h
  pH in solubility analysis: 5.0
[2]; FeSSIF (medium pH 5.0), 24 h
  pH in solubility analysis: 5.1
[2]; FeSSIF, 0.5 h
  XRPD of residual solid in solubility analysis: unchanged
[2]; FeSSIF, 0.5 h, 37° C., target 5 mg/mL
  Solubility: 181 µg/mL (≈ 0.327 mM)
[2]; FeSSIF, 0.5 h, 37° C., target 5 mg/mL, listed as free base crystalline form I
  Solubility: 181 µg/mL (≈ 0.327 mM)
[2]; FeSSIF, 2 h, 37° C., target 5 mg/mL
  Solubility: 221 µg/mL (≈ 0.399 mM)
[2]; FeSSIF, 2 h, 37° C., target 5 mg/mL, listed as free base crystalline form I
  Solubility: 221 µg/mL (≈ 0.399 mM)
[2]; FeSSIF, 24 h
  XRPD of residual solid in solubility analysis: unchanged
[2]; FeSSIF, 24 h, 37° C., target 5 mg/mL
  Solubility: 418 µg/mL (≈ 0.755 mM)
[2]; SGF (medium pH 1.2), 0.5 h
  pH in solubility analysis: 1.3
[2]; SGF (medium pH 1.2), 2 h
  pH in solubility analysis: 1.4
[2]; SGF (medium pH 1.2), 24 h
  pH in solubility analysis: 1.2
[2]; SGF, 0.5 h
  XRPD of residual solid in solubility analysis: unchanged
[2]; SGF, 0.5 h, 37° C., target 5 mg/mL
  Solubility: <LOD
[2]; SGF, 0.5 h, 37° C., target 5 mg/mL, listed as free base crystalline form I
  Solubility: <LOD/<LOD/
[2]; SGF, 2 h, 37° C., target 5 mg/mL
  Solubility: <LOD
[2]; SGF, 2 h, 37° C., target 5 mg/mL, listed as free base crystalline form I
  Solubility: <LOD/<LOD/
[2]; SGF, 24 h, 37° C., target 5 mg/mL
  Solubility: <LOD
[2]; SGF, after 2 h
  XRPD of residual solid in solubility analysis: amorphous
[2]; summary over water, SGF, FaSSIF, FeSSIF
  Solid form of residual solids in solubility analysis: remained unchanged in water, FaSSIF and FeSSIF
[2]; water (medium pH 6.6), 0.5 h
  pH in solubility analysis: 6.6
[2]; water (medium pH 6.6), 2 h
  pH in solubility analysis: 6.5
[2]; water (medium pH 6.6), 24 h
  pH in solubility analysis: 6.4
[2]; water, 0.5 h, 37° C., target 5 mg/mL
  Solubility: <LOD/<LOD/
[2]; water, 2 h, 37° C., target 5 mg/mL
  Solubility: <LOD/<LOD/
[2]; water, 24 h, 37° C., target 5 mg/mL
  Solubility: <LOD

## Cc1c(C#Cc2cnc3ccc(N4CCC(O)CC4)nn23)cccc1C(=O)Nc1cc(Cl)cc(C(F)(F)F)c1 [L-camphor sulfonate crystalline form II]
[4]
  hygroscopicity (DVS): slightly hygroscopic
[4]; 80% RH
  DVS The weight gains by vapor sorption %: 0.8%
[4]; 90% RH
  DVS The weight gains by vapor sorption %: 1.2%
[1]
  XPRD Results after short-term physical stability: unchanged

## Cc1c(C#Cc2cnc3ccc(N4CCC(O)CC4)nn23)cccc1C(=O)Nc1cc(Cl)cc(C(F)(F)F)c1 [Mesylate crystalline form I]
[1]
  XPRD Results after short-term physical stability: new crystalline form
  stability of crystalline form under high humidity conditions: unstable

## Cc1c(C#Cc2cnc3ccc(N4CCC(O)CC4)nn23)cccc1C(=O)Nc1cc(Cl)cc(C(F)(F)F)c1 [Oxalate crystalline form I]
[1]
  XPRD Results after short-term physical stability: unchanged
